In general, Ki refers to a measure of affinity in units of concentration, obtained from inhibition or displacement. A high value points to weaker binding.

Assay [1] in a line: Competitive inhibition of pig PAP using para-nitrophenol as substrate at pH 4.9 preincubated for 10 mins by UV-visible spectrophotometry. Set-up: species or system Sus scrofa.
In assay [2] the target is T1, Fe(3+)-Zn(2+) purple acid phosphatase (Phaseolus vulgaris, UniProt P80366).
T1 sequence (P80366 whole entry): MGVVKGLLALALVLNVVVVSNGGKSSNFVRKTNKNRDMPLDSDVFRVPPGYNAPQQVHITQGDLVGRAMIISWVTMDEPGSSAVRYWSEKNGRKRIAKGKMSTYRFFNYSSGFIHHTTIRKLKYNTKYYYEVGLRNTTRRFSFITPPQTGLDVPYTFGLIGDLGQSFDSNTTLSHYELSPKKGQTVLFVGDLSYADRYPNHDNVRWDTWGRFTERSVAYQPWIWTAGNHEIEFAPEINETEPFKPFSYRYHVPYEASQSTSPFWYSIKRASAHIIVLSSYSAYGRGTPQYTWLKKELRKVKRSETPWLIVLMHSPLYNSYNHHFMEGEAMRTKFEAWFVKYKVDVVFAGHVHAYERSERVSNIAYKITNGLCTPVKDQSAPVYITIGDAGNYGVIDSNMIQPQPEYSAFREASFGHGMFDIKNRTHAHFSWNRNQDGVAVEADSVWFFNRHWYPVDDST
The assay is described as follows: Uncompetitive inhibition of red kidney bean PAP using para-nitrophenol as substrate at pH 4.9 preincubated for 10 mins by UV-visible spectrophotometry.

The target in assay [3] is T1, Fe(3+)-Zn(2+) purple acid phosphatase. Description: Competitive inhibition of red kidney bean PAP using para-nitrophenol as substrate at pH 4.9 preincubated for 10 mins by UV-visible spectrophotometry.
Assay [4] can be described thus: Uncompetitive inhibition of pig PAP using para-nitrophenol as substrate at pH 4.9 preincubated for 10 mins by UV-visible spectrophotometry. Set-up: species or system Sus scrofa.

Take `CCCCCCCC(=O)NC(c1cccc2ccccc12)P(=O)(O)O` (racemic): the Ki in assay [1] stood at 44 µM; in assay [2] it was 443 µM; in assay [3], 195 µM.

Take `CCCCCCCCCC(=O)NC(c1cccc2ccccc12)P(=O)(O)O` (racemic): the Ki in assay [1] was determined as 10 µM; in assay [2] it was 102 µM; in assay [3], 57 µM.

With `CCCCCCCCCCCC(=O)NC(c1cccc2ccccc12)P(=O)(O)O` (racemic), the Ki in assay [1] amounted to 21 µM; in assay [3] it was 5 µM.

Take `CCCCCCCCCCCCCC(=O)NC(c1cccc2ccccc12)P(=O)(O)O` (racemic): the Ki in assay [1] was found to be 8 µM; in assay [3], 11 µM.

Consider `CCCCCCCCCCCCCCCC(=O)NC(c1cccc2ccccc12)P(=O)(O)O` (racemic), for which the values for the Ki in assay [1] and in assay [3] were 13 µM and 31 µM, respectively.

Regarding `CCCCCCC(=O)NC(c1cccc2ccccc12)P(=O)(O)O` (racemic), the inhibition constant (Ki) in assay [4] was found to be 349 µM; in assay [1], 116 µM; in assay [2] it was 446 µM; in assay [3], 222 µM.

In the case of `CCCC(=O)NC(c1cccc2ccccc12)P(=O)(O)O` (racemic), the Ki in assay [4] turned out to be 1440 µM; in assay [1] it was 363 µM; in assay [2], 654 µM; in assay [3], 238 µM.

The values above are taken from ChEMBL document CHEMBL1770077, “Synthesis, modelling and kinetic assays of potent inhibitors of purple acid phosphatase” (Bioorg Med Chem Lett, 2011).
